Paper PMC7534330, “UHPLC-MS/MS method for pharmacokinetic and bioavailability determination of five bioactive components in raw and various processed products of Polygala tenuifolia in rat plasma” (Pharmaceutical Biology, 2020)

How the values were obtained:
[1] = Pharmacokinetics of five components in rat plasma after oral administration of RPT, LPT and HPT extracts (UHPLC-MS/MS); conditions: male, SD, in vivo, 1.9 g/kg; for AUC(0-t): AUC0-t; for AUC(0-inf): AUC0-∞; for MRT last: MRT0-t; for half-life: t1/2
Method: (§1) A Thermo Hypersil Gold C18 column (3.0 × 100 mm, i.d.; 3 μm) was used for chromatographic separation. An aqueous 10 mM ammonium acetate solution (A) and acetonitrile (B) were selected as the mobile phase components. The optimal gradient program involved the following steps: 5% B (0–1 min), changing to 85% B (1–3.5 min), 85% B (3.5–4.0 min), changing to 5% B (4.0–4.1 min) and 5% B (4.1–5.0 min). The flow rate was set to 0.4 mL/min, the autosampler was maintained at 4 °C and the injection volume was 5 μL.
(§2) UHPLC-MS/MS was conducted by an Applied Biosystems (AB) Sciex Exion LC system (Foster City, CA) connected to a 6500 + triple quad tandem mass spectrometer with an electrospray ionization source. All detection and quantifications were carried out in positive multiple reaction monitoring (MRM) mode. The optimized parameters were programmed as follows: ion source temperature, 500 °C; curtain gas pressure, 30 kPa; ion source gas 1 pressure, 55 kPa; ion source gas 2 pressure, 55 kPa; and ion spray voltage, […]. The chemical structures and ion mass spectra of targeted compounds are shown in Figure 1. The precursor ion and product ion were m/z 517.1 → 174.9 for A5, m/z 547.0 → 204.9 for A6, m/z 753.2 → 205.2 for DSS, m/z 681.3 → 443.3 for TFSA, m/z 236.8 → 103.2 for TMCA and m/z 136.9 → 92.9 for IS. All data were acquired by using AB Sciex Analyst software (version 1.6.3).
(§3) After thawing the frozen blood samples at room temperature, a 100 μL aliquot of plasma was spiked with 50 μL of the IS working solution in 2 mL EP tubes, and 750 μL of methanol was added into each of the tubes. Then, these tubes were mixed on a multi-tube Vortexer for 0.5 min before centrifugation at 11,800×g for 10 min. Finally, 200 μL of the obtained supernatant was transferred to a fresh autosampler vial, and then 5 μL of the sample was injected for analysis.
Male SD rats were randomly divided into four groups (n = 6 in each group), including the RPT group, LPT group, HPT group and control group. All oral administration samples were mixed with 0.5% CMC-Na (w/v) and then given to rats at a dose equivalent to 1.9 g/kg of RPT extract. The control group was orally treatment with equal volume of 0.5% CMC-Na solution. After a single administration, all blood samples were collected from the orbital vein into heparinized centrifuge tubes before administration (0 h) and at 0.083, 0.17, 0.25, 0.5, 0.75, 1, 1.5, 2, 3, 5, 8 and 12 h after administration and then centrifuged at 4 °C and 11,800×g for 10 min. The separated supernatant samples were preserved at −80 °C until they were measured.
(§4) The elementary pharmacokinetic parameters of plasma samples were analyzed by DAS 2.0 pharmacokinetic software. One-way analysis of variance (ANOVA) was used for statistical comparison for pharmacokinetic and interaction studies. A p-value < 0.05 indicated a significant difference. The main parameters considered were as follows: AUC0–∞ (the area under the blood concentration-time curve from zero to infinity initial plasma concentration), MRT (the mean residence time), Cmax (peak plasma concentration) and Tmax (time to reach Cmax for oral dose), t1/2 (elimination half-life) (He et al. [2015]). The absolute bioavailability (F) was evaluated as follows: F(%)=(AUCoral×Dosei.v.)/(AUCi.v.×Doseoral)×100%

[2] = Pharmacokinetics and absolute bioavailability of five compounds after oral and i.v. administration (UHPLC-MS/MS); assay type: in vivo; conditions: rat, in vivo; for AUCΔ0-t (dose-normalized) / AUCΔ0-∞ (dose-normalized) / CΔmax (dose-normalized) / half-life / Tmax: SD
Method: as §1, §2, §3
The SD rats were randomly divided into oral and i.v. groups for A5, A6, DSS, TFSA and TMCA administration (n = 6 in each group). The oral doses of A5, A6, DSS, TFSA and TMCA groups were 7.40, 11.60, 16.00, 50.00 and 3.11 mg/kg, respectively, and the corresponding i.v. doses were 0.74, 1.16, 1.60, 5.00 and 0.31 mg/kg, respectively. Blood samples were collected from the suborbital vein into heparinized tubes before and 0, 0.083, 0.17, 0.25, 0.5, 1, 2, 3, 5 and 8 h after administration. The treatment method of blood samples was the same as that mentioned above.
as §4

[3] = Stability of the five analytes in rat plasma; assay type: in vitro ADME; conditions: rat; for Long-term stability, Mean: 4 weeks; for Short-term stability, Mean: 5 h; for Auto-sampler stability, Mean: 24 h
Method: Stock standards of A5, A6, DSS, TFSA, TMCA and IS were prepared in methanol at a concentration of 1 mg/mL. A series of working standard solutions of the targeted compounds ranging from 10 to 20,000 ng/mL and the IS solution at 600 ng/mL were prepared by diluting the stock solutions with methanol and maintained at −20 °C. Calibration standards were freshly prepared by spiking the series of standard solutions (30 μL) including the IS into blank rat plasma (270 μL) to achieve concentrations of 1, 10, 50, 100, 500, 1000, 1600 and 2000 ng/mL. Quality control (QC) samples were prepared independently at low (2 ng/mL), medium (600 ng/mL) and high (1600 ng/mL) concentrations following the same method for the five compounds.
Stability studies included short-term stability (5 h at room temperature, i.e. 25 °C), freeze-thaw stability (three consecutive freeze-thaw cycles from −20 °C to room temperature), autosampler stability (24 h storage in the autosampler at 4 °C) and long-term stability (4 weeks storage at −80 °C). The stability data of all analytes are presented in Supplementary Table S4.

Row | Compound | Cmax [1] [ng/mL] | AUCΔ0-t (dose-normalized) ([2]; iv) [ng·h/mL] | AUCΔ0-∞ (dose-normalized) ([2]; iv) [ng·h/mL] | CΔmax (dose-normalized) ([2]; iv) [ng/mL] | half-life ([2]; iv) [h] | AUCΔ0-t (dose-normalized) ([2]; po) [ng·h/mL] | AUCΔ0-∞ (dose-normalized) ([2]; po) [ng·h/mL] | CΔmax (dose-normalized) ([2]; po) [ng/mL] | half-life ([2]; po) [h] | Tmax ([2]; po) [h] | F, absolute bioavailability [2] | Freeze-thaw stability, Mean ([3]; 2 ng/mL) [%] | Freeze-thaw stability, Mean ([3]; 600 ng/mL) [%] | Freeze-thaw stability, Mean ([3]; 1600 ng/mL) [%] | Long-term stability, Mean ([3]; 2 ng/mL) [%] | Long-term stability, Mean ([3]; 600 ng/mL) [%] | Long-term stability, Mean ([3]; 1600 ng/mL) [%] | Short-term stability, Mean ([3]; 2 ng/mL) [%] | Short-term stability, Mean ([3]; 600 ng/mL) [%] | Short-term stability, Mean ([3]; 1600 ng/mL) [%] | also measured
1 | COc1cc(/C=C/C(=O)O[C@H]2[C@H](O)[C@@H](CO)O[C@@]2(CO)O[C@H]2O[C@H](CO)[C@@H](O)[C@H](O)[C@H]2O)ccc1O [A5, Sibiricose A5] | 169 ± 16.1 | 368.32 ± 57.16 | 368.34 ± 57.18 | 1784.32 ± 136.39 | 1.22 ± 0.07 | 11.99 ± 2.01 | 12.01 ± 2.00 | 9.21 ± 2.30 | 1.27 ± 0.55 | 0.25 | 3.25 % of dose | 92.1 | 93.5 | 101.6 | 88.6 | 97.9 | 96.6 | 94.4 | 95.2 | 98.3 | Tmax [1]: 2.60 ± 0.71 h; AUC(0-t) [1]: 552 ± 31.1 ng·h/mL; AUC(0-inf) [1]: 553 ± 47.1 ng·h/mL; MRT last [1]: 2.64 ± 0.18 h; Tmax ([1]; Tmax): 2 h; half-life [1]: 1.23 ± 0.21 h; Auto-sampler stability, Mean ([3]; 2 ng/mL): 89.4%; Auto-sampler stability, Mean ([3]; 600 ng/mL): 94.2%; Auto-sampler stability, Mean ([3]; 1600 ng/mL): 98.7%
2 | COc1cc(C=CC(=O)OC2C(O)C(CO)OC2(CO)OC2OC(CO)C(O)C(O)C2O)cc(OC)c1O (stereo not shown) [A6, Sibiricose A6] | 183 ± 30.8 | 299.15 ± 100.23 | 299.16 ± 100.23 | 1204.66 ± 249.66 | 0.59 ± 0.1 | 8.82 ± 2.40 | 8.82 ± 2.40 | 4.95 ± 1.64 | 0.62 ± 0.16 | 0.5 | 2.95 % of dose | 92.4 | 91.5 | 98.3 | 93.5 | 96.3 | 96.5 | 91.5 | 94.7 | 97.4 | AUC(0-t) [1]: 570 ± 179 ng·h/mL; AUC(0-inf) [1]: 572 ± 179 ng·h/mL; MRT last [1]: 3.21 ± 0.78 h; Tmax ([1]; Tmax): 3.2 ± 1.64 h; half-life [1]: 1.43 ± 0.12 h; Auto-sampler stability, Mean ([3]; 2 ng/mL): 87.5%; Auto-sampler stability, Mean ([3]; 600 ng/mL): 92.1%; Auto-sampler stability, Mean ([3]; 1600 ng/mL): 97.3%
3 | COc1cc(C=CC(=O)OCC2OC(OC3(CO)OC(CO)C(O)C3OC(=O)C=Cc3cc(OC)c(O)c(OC)c3)C(O)C(O)C2O)cc(OC)c1O (stereo not shown) [DSS, 3,6′-disinapoyl sucrose] | 74.1 ± 30.2 | 106.32 ± 12.09 | 107.00 ± 12.09 | 682.88 ± 120.92 | 0.98 ± 0.27 | 2.51 ± 1.07 | 2.86 ± 1.33 | 4.39 ± 1.69 | 1.01 ± 0.45 | 0.17 | 2.36 % of dose | 89.3 | 97.3 | 99.7 | 95.3 | 97.3 | 93.2 | 95.3 | 98.5 | 98.1 | Auto-sampler stability, Mean ([3]; 2 ng/mL): 92.1%; Auto-sampler stability, Mean ([3]; 600 ng/mL): 97.7%; Auto-sampler stability, Mean ([3]; 1600 ng/mL): 98.6%
4 | COc1cc(/C=C/C(=O)O[C@H]2[C@H](O)[C@@H](CO)O[C@@]2(CO)O[C@H]2O[C@H](COC(=O)c3ccc(O)cc3)[C@@H](O)[C@H](O)[C@H]2O)cc(OC)c1OC [TFSA, tenuifoliside A] | 107 ± 47.7 | 163.79 ± 11.83 | 163.80 ± 11.83 | 375.56 ± 13.65 | 0.49 ± 0.06 | 1.92 ± 0.85 | 1.92 ± 0.85 | 1.88 ± 0.76 | 0.92 ± 0.21 | ~0.19 | 1.17 % of dose | 96.5 | 96.3 | 97.4 | 89.9 | 96.3 | 96.2 | 97.6 | 97.9 | 98.5 | AUC(0-t) [1]: 284 ± 185 ng·h/mL; AUC(0-inf) [1]: 297 ± 194 ng·h/mL; MRT last [1]: 2.92 ± 0.58 h; Auto-sampler stability, Mean ([3]; 2 ng/mL): 96.6%; Auto-sampler stability, Mean ([3]; 600 ng/mL): 98.2%; Auto-sampler stability, Mean ([3]; 1600 ng/mL): 96.3%
